Assay results from PubChem BioAssay (NCI).
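Interpolation was linear, between the two tested concentrations surrounding the appropriate level; five concentrations were tested over 48 hours in 96-well plates. TGI marks complete inhibition of growth.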

Tests used:
Assay in all cases: NCI-60 cell line screen, 48 h
786-0 renal = test system: 786-0 renal
A498 renal = test system: A498 renal
A549 NSCLC = test system: A549 NSCLC
ACHN renal = test system: ACHN renal
CAKI-1 renal = test system: CAKI-1 renal
COLO 205 colon = test system: COLO 205 colon
DLD-1 colon = test system: DLD-1 colon
DMS 114 small cell lung = test system: DMS 114 small cell lung
DMS 273 small cell lung = test system: DMS 273 small cell lung
EKVX NSCLC = test system: EKVX NSCLC
HCC-2998 colon = test system: HCC-2998 colon
HCT-116 colon = test system: HCT-116 colon
HCT-15 colon = test system: HCT-15 colon
HL-60(TB) leukemia = test system: HL-60(TB) leukemia
HOP-18 NSCLC = test system: HOP-18 NSCLC
HOP-62 NSCLC = test system: HOP-62 NSCLC
HOP-92 NSCLC = test system: HOP-92 NSCLC
HT29 colon = test system: HT29 colon
IGROV1 ovarian = test system: IGROV1 ovarian
K-562 leukemia = test system: K-562 leukemia
KM12 colon = test system: KM12 colon
KM20L2 colon = test system: KM20L2 colon
LXFL 529 NSCLC = test system: LXFL 529 NSCLC
M14 melanoma = test system: M14 melanoma
M19-MEL melanoma = test system: M19-MEL melanoma
MALME-3M melanoma = test system: MALME-3M melanoma
MOLT-4 leukemia = test system: MOLT-4 leukemia
NCI-H226 lung = test system: NCI-H226 lung
NCI-H23 lung = test system: NCI-H23 lung
NCI-H460 lung = test system: NCI-H460 lung
NCI-H522 lung = test system: NCI-H522 lung
OVCAR-3 ovarian = test system: OVCAR-3 ovarian
OVCAR-4 ovarian = test system: OVCAR-4 ovarian
OVCAR-5 ovarian = test system: OVCAR-5 ovarian
OVCAR-8 ovarian = test system: OVCAR-8 ovarian
RPMI-8226 leukemia = test system: RPMI-8226 leukemia
RXF 393 renal = test system: RXF 393 renal
SF-268 CNS = test system: SF-268 CNS
SF-295 CNS = test system: SF-295 CNS
SF-539 CNS = test system: SF-539 CNS
SK-MEL-2 melanoma = test system: SK-MEL-2 melanoma
SK-MEL-5 melanoma = test system: SK-MEL-5 melanoma
SK-OV-3 ovarian = test system: SK-OV-3 ovarian
SN12C renal = test system: SN12C renal
SNB-19 CNS = test system: SNB-19 CNS
SNB-75 CNS = test system: SNB-75 CNS
SNB-78 CNS = test system: SNB-78 CNS
SR leukemia = test system: SR leukemia
SW-620 colon = test system: SW-620 colon
TK-10 renal = test system: TK-10 renal
U251 CNS = test system: U251 CNS
UACC-257 melanoma = test system: UACC-257 melanoma
UACC-62 melanoma = test system: UACC-62 melanoma
UO-31 renal = test system: UO-31 renal
XF 498 CNS = test system: XF 498 CNS
CCRF-CEM leukemia = test system: CCRF-CEM leukemia
LOX IMVI melanoma = test system: LOX IMVI melanoma
SK-MEL-28 melanoma = test system: SK-MEL-28 melanoma
RXF-631 renal = test system: RXF-631 renal

In the case of `CN(C)C=[N+]=[N-]`, the TGI (786-0 renal) is reported as over 100 µM, the TGI (A498 renal) is reported as over 100 µM and the TGI (A549 NSCLC) is reported as over 100 µM. For the same molecule, the TGI (ACHN renal) was over 100 µM, the TGI (CAKI-1 renal) was over 100 µM and the TGI (COLO 205 colon) was over 100 µM. For the same molecule, the TGI (DLD-1 colon) was over 100 µM, the TGI (DMS 114 small cell lung) was over 100 µM and the TGI (DMS 273 small cell lung) was over 100 µM. It also gave a TGI (EKVX NSCLC) of over 100 µM, a TGI (HCC-2998 colon) of over 100 µM and a TGI (HCT-116 colon) of over 100 µM. For the same molecule, the TGI (HCT-15 colon) was over 100 µM, the TGI (HL-60(TB) leukemia) was over 100 µM and the TGI (HOP-18 NSCLC) was over 100 µM. It also gave a TGI (HOP-62 NSCLC) of over 100 µM, a TGI (HOP-92 NSCLC) of over 100 µM and a TGI (HT29 colon) of over 100 µM. For the same molecule, the TGI (IGROV1 ovarian) was over 100 µM, the TGI (K-562 leukemia) was over 100 µM and the TGI (KM12 colon) was over 100 µM. The TGI (KM20L2 colon) was over 100 µM, the TGI (LXFL 529 NSCLC) was over 100 µM and the TGI (M14 melanoma) was over 100 µM. For the same molecule, the TGI (M19-MEL melanoma) was over 100 µM, the TGI (MALME-3M melanoma) was over 100 µM and the TGI (MOLT-4 leukemia) was over 100 µM. For the same molecule, the TGI (NCI-H226 lung) was over 100 µM, the TGI (NCI-H23 lung) was over 100 µM and the TGI (NCI-H460 lung) was over 100 µM. The TGI (NCI-H522 lung) was over 100 µM, the TGI (OVCAR-3 ovarian) was over 100 µM and the TGI (OVCAR-4 ovarian) was over 100 µM. The TGI (OVCAR-5 ovarian) was over 100 µM, the TGI (OVCAR-8 ovarian) was over 100 µM and the TGI (RPMI-8226 leukemia) was over 100 µM. For the same molecule, the TGI (RXF 393 renal) was over 100 µM, the TGI (SF-268 CNS) was over 100 µM and the TGI (SF-295 CNS) was over 100 µM. It also gave a TGI (SF-539 CNS) of over 100 µM, a TGI (SK-MEL-2 melanoma) of over 100 µM and a TGI (SK-MEL-5 melanoma) of over 100 µM. It also gave a TGI (SK-OV-3 ovarian) of over 100 µM, a TGI (SN12C renal) of over 100 µM and a TGI (SNB-19 CNS) of over 100 µM. For the same molecule, the TGI (SNB-75 CNS) was over 100 µM, the TGI (SNB-78 CNS) was over 100 µM and the TGI (SR leukemia) was over 100 µM. It also gave a TGI (SW-620 colon) of over 100 µM, a TGI (TK-10 renal) of over 100 µM and a TGI (U251 CNS) of over 100 µM. The TGI (UACC-257 melanoma) was over 100 µM, the TGI (UACC-62 melanoma) was over 100 µM and the TGI (UO-31 renal) was over 100 µM. For the same molecule, the TGI (XF 498 CNS) was over 100 µM.
In the case of `COc1cc2c(cc1OC)[C@H]1C(COC(=O)c3ccccc3)CSC(=Nc3ccccc3)N1CC2` (stereo partly drawn), the TGI (786-0 renal) is reported as over 100 µM, the TGI (A498 renal) is reported as over 100 µM and the TGI (A549 NSCLC) is reported as over 100 µM. For the same molecule, the TGI (ACHN renal) was over 100 µM, the TGI (CAKI-1 renal) was over 100 µM and the TGI (CCRF-CEM leukemia) was over 100 µM. The TGI (COLO 205 colon) was over 100 µM, the TGI (DLD-1 colon) was over 100 µM and the TGI (DMS 114 small cell lung) was over 100 µM. It also gave a TGI (DMS 273 small cell lung) of over 100 µM, a TGI (EKVX NSCLC) of over 100 µM and a TGI (HCC-2998 colon) of over 100 µM. It also gave a TGI (HCT-116 colon) of over 100 µM, a TGI (HCT-15 colon) of over 100 µM and a TGI (HL-60(TB) leukemia) of over 100 µM. The TGI (HOP-18 NSCLC) was over 100 µM, the TGI (HOP-62 NSCLC) was over 100 µM and the TGI (HOP-92 NSCLC) was over 100 µM. The TGI (HT29 colon) was over 100 µM, the TGI (IGROV1 ovarian) was over 100 µM and the TGI (KM12 colon) was over 100 µM. It also gave a TGI (KM20L2 colon) of over 100 µM, a TGI (LOX IMVI melanoma) of over 100 µM and a TGI (LXFL 529 NSCLC) of over 100 µM. For the same molecule, the TGI (M14 melanoma) was over 100 µM, the TGI (M19-MEL melanoma) was over 100 µM and the TGI (MALME-3M melanoma) was over 100 µM. It also gave a TGI (NCI-H226 lung) of over 100 µM, a TGI (NCI-H23 lung) of over 100 µM and a TGI (NCI-H460 lung) of over 100 µM. The TGI (NCI-H522 lung) was 6.08 µM, the TGI (OVCAR-3 ovarian) was over 100 µM and the TGI (OVCAR-4 ovarian) was over 100 µM. For the same molecule, the TGI (OVCAR-5 ovarian) was over 100 µM, the TGI (OVCAR-8 ovarian) was over 100 µM and the TGI (RPMI-8226 leukemia) was over 100 µM. It also gave a TGI (RXF 393 renal) of over 100 µM, a TGI (SF-268 CNS) of over 100 µM and a TGI (SF-295 CNS) of over 100 µM. It also gave a TGI (SF-539 CNS) of over 100 µM, a TGI (SK-MEL-2 melanoma) of over 100 µM and a TGI (SK-MEL-28 melanoma) of over 100 µM. The TGI (SK-MEL-5 melanoma) was over 100 µM, the TGI (SK-OV-3 ovarian) was over 100 µM and the TGI (SN12C renal) was over 100 µM. The TGI (SNB-19 CNS) was over 100 µM, the TGI (SNB-75 CNS) was over 100 µM and the TGI (SNB-78 CNS) was over 100 µM. For the same molecule, the TGI (SR leukemia) was over 100 µM, the TGI (SW-620 colon) was over 100 µM and the TGI (TK-10 renal) was over 100 µM. The TGI (U251 CNS) was over 100 µM, the TGI (UACC-257 melanoma) was over 100 µM and the TGI (UACC-62 melanoma) was over 100 µM. The TGI (UO-31 renal) was over 100 µM and the TGI (XF 498 CNS) was over 100 µM.
Work on `CC(=O)C(CN(Cc1ccccc1)Cc1ccccc1)C(c1ccccc1)c1c(O)c2ccccc2oc1=O` (stereo not drawn) yielded a TGI (786-0 renal) of over 100 µM, a TGI (A498 renal) of over 100 µM and a TGI (A549 NSCLC) of over 100 µM. It also gave a TGI (ACHN renal) of over 100 µM, a TGI (CAKI-1 renal) of over 100 µM and a TGI (CCRF-CEM leukemia) of over 100 µM. The TGI (DLD-1 colon) was over 100 µM, the TGI (EKVX NSCLC) was over 100 µM and the TGI (HCT-116 colon) was over 100 µM. The TGI (HCT-15 colon) was over 100 µM, the TGI (HL-60(TB) leukemia) was over 100 µM and the TGI (HOP-62 NSCLC) was over 100 µM. For the same molecule, the TGI (HOP-92 NSCLC) was over 100 µM, the TGI (HT29 colon) was over 100 µM and the TGI (IGROV1 ovarian) was over 100 µM. For the same molecule, the TGI (K-562 leukemia) was over 100 µM, the TGI (KM12 colon) was over 100 µM and the TGI (KM20L2 colon) was over 100 µM. For the same molecule, the TGI (LOX IMVI melanoma) was over 100 µM, the TGI (LXFL 529 NSCLC) was over 100 µM and the TGI (M14 melanoma) was over 100 µM. It also gave a TGI (M19-MEL melanoma) of over 100 µM, a TGI (MALME-3M melanoma) of over 100 µM and a TGI (NCI-H226 lung) of over 100 µM. The TGI (NCI-H23 lung) was over 100 µM, the TGI (NCI-H460 lung) was over 100 µM and the TGI (NCI-H522 lung) was over 100 µM. The TGI (OVCAR-3 ovarian) was over 100 µM, the TGI (OVCAR-4 ovarian) was over 100 µM and the TGI (OVCAR-5 ovarian) was over 100 µM. It also gave a TGI (OVCAR-8 ovarian) of over 100 µM, a TGI (RPMI-8226 leukemia) of over 100 µM and a TGI (RXF 393 renal) of over 100 µM. For the same molecule, the TGI (RXF-631 renal) was over 100 µM, the TGI (SF-268 CNS) was over 100 µM and the TGI (SF-295 CNS) was over 100 µM. It also gave a TGI (SF-539 CNS) of over 100 µM, a TGI (SK-MEL-2 melanoma) of over 100 µM and a TGI (SK-MEL-5 melanoma) of over 100 µM. For the same molecule, the TGI (SK-OV-3 ovarian) was over 100 µM, the TGI (SN12C renal) was over 100 µM and the TGI (SNB-19 CNS) was over 100 µM. The TGI (SNB-75 CNS) was over 100 µM, the TGI (SNB-78 CNS) was over 100 µM and the TGI (SR leukemia) was over 100 µM. For the same molecule, the TGI (SW-620 colon) was over 100 µM, the TGI (TK-10 renal) was over 100 µM and the TGI (U251 CNS) was over 100 µM. For the same molecule, the TGI (UACC-257 melanoma) was over 100 µM, the TGI (UACC-62 melanoma) was over 100 µM and the TGI (UO-31 renal) was over 100 µM. It also gave a TGI (XF 498 CNS) of over 100 µM.
